Experimental data taken from the NIST ThermoML archive (doi:10.1021/je900550v).

Details: 101.33 kPa, Liquid; for speed of sound: Pulse-echo method; for mass density: Vibrating tube method

CC(C)C(=O)[O-].C[NH2+]CCO [2-hydroxy-N-methylethanaminium isobutyrate]
Details	mass density [kg/m3]	speed of sound [m/s]	viscosity [mPa·s]
308.15 K	1036.92	1583.1	–
308.4 K	1036.77	1582.4	–
308.65 K	1036.6	1581.7	–
308.9 K	1036.44	1581	–
309.15 K	1036.28	1580.3	–
309.4 K	1036.11	1579.6	–
309.65 K	1035.95	1578.8	–
309.9 K	1035.79	1578.2	–
310.15 K	1035.62	1577.5	–
310.4 K	1035.46	1576.7	–
310.65 K	1035.29	1576	–
310.91 K	1035.13	1575.3	–
311.16 K	1034.97	1574.6	–
311.4 K	1034.81	1573.9	–
311.65 K	1034.64	1573.2	–
311.91 K	1034.48	1572.5	–
312.16 K	1034.32	1571.8	–
312.41 K	1034.15	1571.1	–
312.66 K	1033.99	1570.4	–
312.91 K	1033.82	1569.7	–
313.15 K	–	–	75.78
313.16 K	1033.66	1569	–
313.4 K	1033.49	1568.3	–
313.66 K	1033.33	1567.5	–
313.9 K	1033.16	1566.8	–
314.15 K	1033	1566.1	–
314.4 K	1032.84	1565.4	–
314.65 K	1032.67	1564.7	–
314.9 K	1032.51	1564	–
315.15 K	1032.35	1563.3	–
315.41 K	1032.18	1562.6	–
315.65 K	1032.01	1561.9	–
315.91 K	1031.85	1561.2	–
316.16 K	1031.68	1560.5	–
316.41 K	1031.52	1559.8	–
316.66 K	1031.35	1559.1	–
316.91 K	1031.18	1558.4	–
317.16 K	1031.02	1557.7	–
317.4 K	1030.86	1557	–
317.66 K	1030.69	1556.2	–
317.91 K	1030.53	1555.5	–
318.15 K	–	–	60.1
318.16 K	1030.36	1554.8	–
318.41 K	1030.19	1554.1	–
318.65 K	1030.03	1553.4	–
318.9 K	1029.87	1552.7	–
319.16 K	1029.7	1552	–
319.41 K	1029.53	1551.3	–
319.65 K	1029.37	1550.6	–
319.91 K	1029.2	1549.9	–
320.16 K	1029.03	1549.2	–
320.41 K	1028.87	1548.4	–
320.65 K	1028.7	1547.7	–
320.91 K	1028.54	1547	–
321.15 K	1028.37	1546.3	–
321.41 K	1028.2	1545.6	–
321.66 K	1028.03	1544.9	–
321.9 K	1027.87	1544.2	–
322.15 K	1027.7	1543.4	–
322.41 K	1027.54	1542.7	–
322.65 K	1027.37	1542	–
322.91 K	1027.2	1541.3	–
